Experimental data reported in PubChem BioAssay AID1117355 (Cheminformatics & Chemogenomics Research Group (CCRG), …, 2015).
Activity calls are given as the source filed them. The rule behind the calls is not given here.

Each molecule was assayed against Glycogen synthase kinase-3 beta (Homo sapiens) (UniProt P49841) (assay: NPC library primary assay, GSK-3β enzyme inhibitors, biochemical, Homo sapiens, LANCE Ultra TR-FRET detection (AID 1117355)). Conditions: LANCE Ultra TR-FRET kinase activity; at 20 µM (top of the series).
Chain of Glycogen synthase kinase-3 beta (Homo sapiens) (P49841 whole entry, looked up): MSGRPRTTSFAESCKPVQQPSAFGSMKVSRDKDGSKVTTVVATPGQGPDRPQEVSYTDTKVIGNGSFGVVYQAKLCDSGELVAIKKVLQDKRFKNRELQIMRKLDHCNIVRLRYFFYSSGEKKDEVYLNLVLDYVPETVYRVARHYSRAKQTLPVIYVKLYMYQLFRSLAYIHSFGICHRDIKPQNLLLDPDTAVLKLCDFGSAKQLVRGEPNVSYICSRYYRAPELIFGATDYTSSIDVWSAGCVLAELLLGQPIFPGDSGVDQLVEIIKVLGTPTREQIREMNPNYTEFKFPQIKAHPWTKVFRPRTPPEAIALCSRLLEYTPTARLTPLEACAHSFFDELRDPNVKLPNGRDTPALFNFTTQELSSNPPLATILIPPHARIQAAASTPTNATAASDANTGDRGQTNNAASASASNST
`COC(=O)Nc1nc2ccc(C(=O)c3ccccc3)cc2[nH]1` was tested, and the inhibition was 25.4% (inactive).
With `NC(=NCCCCCCN=C(N)/N=C(\N)Nc1ccc(Cl)cc1)/N=C(\N)Nc1ccc(Cl)cc1` the inhibition was 0.77% (inactive).
For `COC(=O)c1nc(Cl)c(Cl)nc1N`, the inhibition was 20.8% (inactive).
In the case of `O=C(CCCCCCC(=O)Nc1ccccc1)NO`, the inhibition is reported as -28.8% (inactive).
With `COc1cc2nc(N3CCN(C(=O)c4ccco4)CC3)nc(N)c2cc1OC` the inhibition was -50.4% (inactive).
In the case of `CC[C@]1(O)C[C@@H]2CN(CCc3c([nH]c4ccccc34)[C@@](C(=O)OC)(c3cc4c(cc3OC)N(C)[C@H]3[C@@](O)(C(=O)OC)[C@H](OC(C)=O)[C@]5(CC)C=CCN6CC[C@]43[C@@H]65)C2)C1`, the inhibition is reported as -4.66% (inactive).
`CSc1ccc2c(c1)C(N1CCN(C)CC1)Cc1ccccc1S2` (stereo unspecified) was tested, and the inhibition was 0.73% (inactive).
`COC(=O)Nc1nc2ccc(C(=O)C3CC3)cc2[nH]1` showed an inhibition of 54.4%.
`COCc1c(C(C)C)nc(C(C)C)c(/C=C/[C@@H](O)C[C@@H](O)CC(=O)O)c1-c1ccc(F)cc1` was tested, and the inhibition was 3.27% (inactive).
`COc1ccc(-c2ccc3cc(C(=O)O)ccc3c2)cc1C12CC3CC(CC(C3)C1)C2` gave an inhibition of 79.4%.
In the case of `C[C@@]12C(=O)OC(=O)[C@]1(C)C1CCC2O1`, the inhibition is reported as 2.16% (inactive).
With `CCC1=C[C@@H]2CN(C1)Cc1c([nH]c3ccccc13)[C@@](C(=O)OC)(c1cc3c(cc1OC)N(C)[C@H]1[C@@](O)(C(=O)OC)[C@H](OC(C)=O)[C@]4(CC)C=CCN5CC[C@]31[C@@H]54)C2` the inhibition was 24.2% (inactive).
`CCN(CC)CCNC(=O)c1c(C)[nH]c(/C=C2\C(=O)Nc3ccc(F)cc32)c1C` showed an inhibition of 62.9%.
For `O=c1c(-c2ccccc2)c1-c1ccccc1`, the inhibition was 31.4% (inactive).
In the case of `Oc1c(Cl)cc(Cl)c2cccnc12`, the inhibition is reported as -26.5% (inactive).
With `CC[C@@]1(O)C(=O)OCc2c1cc1n(c2=O)Cc2c-1nc1ccccc1c2/C=N/OC(C)(C)C` the inhibition was 16.9% (inactive).
`CCCCCCCCCCCCCCCC[n+]1ccccc1` was tested, and the inhibition was -21.5% (inactive).
`CCN(CC)CCNc1ccc(CO)c2sc3ccccc3c(=O)c12` was tested, and the inhibition was 24.6% (inactive).
For `Cc1ccccc1C(=O)Nc1ccc(C(=O)N2CCCC(N(C)C)c3ccccc32)cc1` (stereo unspecified), the inhibition was 18.2% (inactive).
In the case of `CCC(C)n1ncn(-c2ccc(N3CCN(c4ccc(OC[C@H]5CO[C@](Cn6cncn6)(c6ccc(Cl)cc6Cl)O5)cc4)CC3)cc2)c1=O` (stereo partly specified), the inhibition is reported as 14.1% (inactive).
For `S=c1nc[nH]c2nc[nH]c12`, the inhibition was 20.7% (inactive).
With `COC(=O)[C@H]1[C@H]2C[C@@H]3c4[nH]c5cc(OC)ccc5c4CCN3C[C@H]2C[C@@H](OC(=O)/C=C/c2ccc(O)c(OC)c2)[C@@H]1OC` the inhibition was 7.56% (inactive).
With `[O-][n+]1ccccc1SSc1cccc[n+]1[O-]` the inhibition was -25.6% (inactive).
`O=c1[nH]c(=O)n([C@H]2C[C@H](O)[C@@H](CO)O2)cc1F` was tested, and the inhibition was -21.3% (inactive).
For `CC(=O)Oc1ccc(C2(c3ccc(OC(C)=O)cc3)Oc3ccccc3NC2=O)cc1`, the inhibition was 19% (inactive).
In the case of `Cn1cnc([N+](=O)[O-])c1Sc1ncnc2nc[nH]c12`, the inhibition is reported as -18.2% (inactive).
`CN1CC[C@H](c2c(O)cc(O)c3c(=O)cc(-c4ccccc4Cl)oc23)[C@H](O)C1` gave an inhibition of 99.9%.
For `CCCN(CCC)C(=O)C(CCC(=O)OCCCN1CCN(CCOC(=O)Cc2c(C)n(C(=O)c3ccc(Cl)cc3)c3ccc(OC)cc23)CC1)NC(=O)c1ccccc1` (stereo unspecified), the inhibition was 0.27% (inactive).
`O=C(CCl)c1ccc(Cl)cc1Cl` was tested, and the inhibition was 9.91% (inactive).
`Cc1ccc2nc(N)[nH]c(=O)c2c1Sc1ccncc1` was tested, and the inhibition was -35.9% (inactive).
In the case of `CCCCC1C(=O)N(c2ccccc2)N(c2ccc(O)cc2)C1=O` (stereo unspecified), the inhibition is reported as 5.48% (inactive).
In the case of `Oc1c(I)cc(I)c2cccnc12`, the inhibition is reported as -1.57% (inactive).
For `CC[C@]1(O)C[C@H]2CN(CCc3c([nH]c4ccccc34)[C@@](C(=O)OC)(c3cc4c(cc3OC)N(C=O)[C@H]3[C@@](O)(C(=O)OC)[C@H](OC(C)=O)[C@]5(CC)C=CCN6CC[C@]43[C@@H]65)C2)C1`, the inhibition was -0.84% (inactive).
`COc1ccc(-c2nc3ccc(C4=NNC(=O)CC4C)cc3[nH]2)cc1` (stereo unspecified) was tested, and the inhibition was -64.9% (inactive).
`COc1cc(NCc2ccc3nc(N)nc(N)c3c2C)cc(OC)c1OC` was tested, and the inhibition was 2.46% (inactive).
For `Cc1cc(O)c2ccccc2c1O`, the inhibition was 50.4%.
With `Nc1nc(=S)c2[nH]cnc2[nH]1` the inhibition was -30.7% (inactive).
Molecule `Oc1c(Cl)cc(Cl)cc1Sc1cc(Cl)cc(Cl)c1O` has an inhibition of 81.3%.
In the case of `CCCOc1ccc2nc(NC(=O)OC)[nH]c2c1`, the inhibition is reported as -5.09% (inactive).
For `C[n+]1c2cc(N)ccc2cc2ccc(N)cc21` (tested in a mixture with another compound), the inhibition was -24.7% (inactive).
With `CCCCCCCCCCCCCCCCCCNC(=O)OC1CCN(C(=O)OC[C@H](COC(=O)N(Cc2cccc[n+]2CC)C(=O)c2ccccc2OC)OC)CC1` the inhibition was 24% (inactive).
`Cc1cc2c(C(C)C)c(O)c(O)c(C=O)c2c(O)c1-c1c(C)cc2c(C(C)C)c(O)c(O)c(C=O)c2c1O` was tested, and the inhibition was 7.52% (inactive).
For `CCCCc1oc2ccccc2c1C(=O)c1cc(I)c(OCCN(CC)CC)c(I)c1`, the inhibition was 26% (inactive).
For `O=C(NOCC1CC1)c1ccc(F)c(F)c1Nc1ccc(I)cc1Cl`, the inhibition was -12.6% (inactive).
For `CC[C@@H]([C@H](C)O)n1ncn(-c2ccc(N3CCN(c4ccc(OC[C@@H]5CO[C@@](Cn6cncn6)(c6ccc(F)cc6F)C5)cc4)CC3)cc2)c1=O`, the inhibition was 8.55% (inactive).
In the case of `O=C1c2c(O)ccc(O)c2C(=O)c2c(NCCNCCO)ccc(NCCNCCO)c21`, the inhibition is reported as -5.18% (inactive).
`CC(=O)[C@]1(O)Cc2c(O)c3c(c(O)c2[C@@H](O[C@H]2C[C@H](N)[C@H](O)[C@H](C)O2)C1)C(=O)c1ccccc1C3=O` was tested, and the inhibition was 5.63% (inactive).
Work on `Cc1nc2ccc(CN(C)c3ccc(C(=O)N[C@@H](CCC(=O)O)C(=O)O)s3)cc2c(=O)[nH]1` yielded an inhibition of 81.3%.
`Cc1nc(Nc2ncc(C(=O)Nc3c(C)cccc3Cl)s2)cc(N2CCN(CCO)CC2)n1` was tested, and the inhibition was 38.8% (inactive).
For `CCN(CC)CCOc1ccc(/C(=C(\Cl)c2ccccc2)c2ccccc2)cc1`, the inhibition was -11.9% (inactive).
In the case of `CN(C)c1ccc2nc3ccc(=[N+](C)C)cc-3sc2c1`, the inhibition is reported as -210% (inactive).
For `COC(=O)Nc1nc2ccc(Sc3ccccc3)cc2[nH]1`, the inhibition was -21% (inactive).
For `COC(=O)Nc1nc2ccc(C(=O)c3cccs3)cc2[nH]1`, the inhibition was 42.2% (inactive).
In the case of `Cc1nc(N)nc(N)c1-c1ccc(Cl)c(Cl)c1`, the inhibition is reported as -1.14% (inactive).
In the case of `CCCCCCNC(=O)n1cc(F)c(=O)[nH]c1=O`, the inhibition is reported as -7.61% (inactive).
`CC(C)(C)C1CCC(CC2=C(O)c3ccccc3C(=O)C2=O)CC1` (stereo unspecified) was tested, and the inhibition was 10.2% (inactive).
For `COc1ccc2cc1Oc1ccc(cc1)C[C@H]1c3c(cc4c(c3Oc3cc5c(cc3OC)CCN(C)[C@@H]5C2)OCO4)CCN1C`, the inhibition was 2.24% (inactive).
With `O=C(Nc1ccc([N+](=O)[O-])cc1Cl)c1cc(Cl)ccc1O` the inhibition was -11.3% (inactive).
`C=C(C)[C@H]1Cc2c(ccc3c2O[C@@H]2COc4cc(OC)c(OC)cc4[C@@H]2C3=O)O1` was tested, and the inhibition was 21.6% (inactive).
For `CCCCCCCCCCCCCC[N+](C)(C)C`, the inhibition was -4.51% (inactive).
With `O=[N+]([O-])c1ccc(O)c2ncccc12` the inhibition was -9.81% (inactive).
With `Cc1cc(=O)c2c(O)c3c(O)cc(=O)c4c3c3c(cc(O)c1c23)C(C)(C)C=4O` the inhibition was 60.6%.
For `CC(C)C[C@H](NC(=O)[C@H](CCc1ccccc1)NC(=O)CN1CCOCC1)C(=O)N[C@@H](Cc1ccccc1)C(=O)N[C@@H](CC(C)C)C(=O)[C@@]1(C)CO1`, the inhibition was 20.4% (inactive).
For `CCCSc1ccc2nc(NC(=O)OC)[nH]c2c1`, the inhibition was -11.3% (inactive).
With `COc1cc(-c2ccc(=O)[nH]n2)ccc1OC(F)F` the inhibition was -21.7% (inactive).
`Cc1cc(C)c(/C=C2\C(=O)Nc3ccccc32)[nH]1` was tested, and the inhibition was -34.3% (inactive).
In the case of `CNC(=O)c1cc(Oc2ccc(NC(=O)Nc3ccc(Cl)c(C(F)(F)F)c3)cc2)ccn1`, the inhibition is reported as 47.6% (inactive).
`COC(=O)Nc1nc2ccc(S(=O)c3ccccc3)cc2[nH]1` (stereo unspecified) was tested, and the inhibition was -3.53% (inactive).
`COc1c(C)c2c(c(O)c1C/C=C(\C)CCC(=O)OCCN1CCOCC1)C(=O)OC2` was tested, and the inhibition was 11.3% (inactive).
In the case of `CC(C)(C)C(=O)OCOP(=O)(COCCn1cnc2c(N)ncnc21)OCOC(=O)C(C)(C)C`, the inhibition is reported as 7.97% (inactive).
In the case of `Cc1cc(C2CCCCC2)n(O)c(=O)c1`, the inhibition is reported as 0.84% (inactive).
For `O=C(O)c1ccc(-n2nc(-c3ccccc3O)nc2-c2ccccc2O)cc1`, the inhibition was 37.5% (inactive).
For `Nc1ccc2cc3ccc(N)cc3nc2c1`, the inhibition was -57.5% (inactive).
For `COc1cc([C@@H]2c3cc4c(cc3[C@H](O)[C@H]3COC(=O)[C@H]23)OCO4)cc(OC)c1OC`, the inhibition was 26.6% (inactive).
In the case of `C=CC(=O)Nc1cc2c(Nc3ccc(F)c(Cl)c3)ncnc2cc1OCCCN1CCOCC1`, the inhibition is reported as 31.2% (inactive).
In the case of `CCc1nc(N)nc(N)c1-c1ccc(Cl)cc1`, the inhibition is reported as -8.63% (inactive).
For `COc1cc2c(c(OC)c1OC)-c1ccc(OC)c(=O)cc1[C@@H](NC(C)=O)CC2`, the inhibition was 4.13% (inactive).
In the case of `COc1cccc2c1C(=O)c1c(O)c3c(c(O)c1C2=O)C[C@@](O)(C(C)=O)C[C@@H]3O[C@H]1C[C@H](N)[C@H](O)[C@H](C)O1`, the inhibition is reported as 7.12% (inactive).
With `CC(C)C[C@H](NC(=O)[C@H](Cc1ccccc1)NC(=O)c1cnccn1)B(O)O` the inhibition was 1.64% (inactive).
In the case of `Cc1ccc([N+](=O)[O-])[c]2c1[O][Hg]2`, the inhibition is reported as 66.1%.
In the case of `O=c1[nH]c(=O)n([C@H]2C[C@H](O)[C@@H](CO)O2)cc1C(F)(F)F`, the inhibition is reported as 17.2% (inactive).
